Experimental data taken from US10195220B2, “Hydrogen sulphide compounds” (Aston University, priority 2013, dated 2019).

Tests used:
[1] = test system: rat; settings: chronic administration; cited from earlier work
[2] = test system: HTR-8/SVneo cells; assay: Trophoblast cell invasion assay (Matrigel-coated transwell); type: cell-based, human; settings: PAG 50 μM, 24 h, p<0.01, n=3
Experimental: The human extravillus trophoblast (EVT) cell line HTR-8/SVneo was a kind gift from Professor Charles H. Graham, Queen's University, Kingston, Ontario, Canada. The invasion assay was performed as described previously, with modification.30 Briefly, HTR-8/SVneo (50,000) cells treated with or without PAG were placed in the upper chamber of Matrigel-coated (1 mg/ml) transwell inserts (8 μm pore, Falcon, BD, UK) and housed in a 24-well plate. The cells were allowed to invade through the reconstituted extracellular matrix for 24 h in the presence or absence of 50 µM PAG (n=3). Trophoblast cells located on the under-surface of the transwell membrane were fixed with ice-cold methanol and stained with hematoxylin, and brightfield images were obtained with Nikon inverted microscope and Image Pro Plus image analysis software (Media Cybernetics). Transwell migration assays of HTR-8/SVneo cells in the presence of 50 µM of PAG were performed as described in Methods. (A) Migrated HTR-8/SVneo were stained with hematoxylin, and brightfield images were captured. (B) Cell numbers were counted, and results are expressed as a percentage of the control (n=3).

[3] = test system: pregnant C57Bl6/J mice; assay: CSE inhibition in pregnant mice (PAG, with or without GYY4137); type: in vivo
Experimental: Eight to ten week old C57/black6 mice were mated. The first day of pregnancy (E0.5) was defined by the presence of a vaginal plug the following morning. Pregnant mice were randomly assigned into four groups: (i) saline (vehicle control), (ii) 25 mg/kg DL-propargylglycine (PAG; Sigma, Poole, U.K.), (iii) 50 mg/kg group PAG and (iv) 50 mg/kg
PAG with 0.25 mg/kg of slow-releasing H2S donor, GYY4137(Sigma). Mice were injected intraperitoneally (i.p.) with saline or PAG from E8.5. Blood pressure was measured by tail cuff-plethysmography. Mice were trained for measurement on alternate days from E4.5. Alternatively, mice were anesthetized by Ketamine/Xylazine cocktail. The carotid artery was isolated and cannulated with a 3-Fr high-fidelity microtip catheter connected to a pressure transducer (Millar Instruments, Houston, Tex., USA). Blood pressure was recorded and averaged over a 10-minute period. On E17.5, after blood pressure measurement and blood sample collection the animals were sacrificed and kidney, liver, and placenta were collected. The un-absorbed fetuses and placentas were counted and weighed.
Kidney, liver, and placenta were immersion fixed in 4% paraformaldehyde for 24 hours and processed to paraffin. A series of 5-μm sections were cut and processed for hematoxylin & eosin (H&E) staining.
(§1) Enzyme-linked immunosorbent assay (ELISA) kits for human and murine soluble Flt-1, soluble endoglin and PlGF were obtained from R&D Systems and performed according to the manufacturer's specifications.
Serial 3-5-μm sections of formalin-fixed, paraffin-embedded human and murine placental tissue were prepared for immunohistochemistry as previously described.^29 Biotin-labelled isolectin B4, anti-CSE (5 mg/ml) and isotype control were used. The staining was analyzed using a Nikon inverted microscope and an Image Pro Plus image analysis software (Media Cybernetics).
Citrated blood was obtained from women with uncomplicated pregnancies (n=14) and preeclampsia (n=14) and also from pregnant mice before termination of pregnancy. H2S levels were measured as described previously with modification.^32 Briefly, 75 μl plasma was mixed with 250 μl of 1% (w/v) zinc acetate and 425 μl water, followed by […] 50% trichloroacetic acid to remove protein. Then 133 μl 20 mM N-dimethyl-p-phenylenediamine sulphate in 7.2 mM HCl and 133 μl 30 μM FeCl3 in 1.2 mM HCl were added to the mixture. After 10 min incubation at room temperature, reaction mixtures were pelleted by centrifugation at 10,000 g (2 minutes). The absorbance of the resulting solution was measured at 670 nm with a spectrophotometer in a 96-well plate. The concentration of H2S in the solution was calculated against a calibration curve of sodium hydrogen sulfide.
Three groups (5-8/group) of pregnant C57Bl6/J mice were treated daily with vehicle or 25 mg/kg PAG or 50 mg/kg PAG from E8.5 to E16.5. After 8 days of treatment, plasma was pooled from all animals in each treatment group, and pooled H2S levels were measured. […] The labyrinth zone consists of cells of trophoblast and mesodermal origin that together undergo branching morphogenesis, resulting in a large surface area for nutrient and gas exchange between the mother and fetus. The maternal blood space is lined by trophoblast. During placental development, this space becomes progressively more finely divided.^37, 38 Using isolectin B4 to highlight the fetal endothelial cell,^39 we compared the anatomical features of the labyrinth zone in vehicle and 50 mg/kg PAG-treated mice.

[4] = test system: first trimester human placental explants; assay: Angiogenic factor release from first trimester placental villus explants (ELISA of conditioned medium); type: cell-based; settings: increasing concentration of PAG over 24 hours
Description: Institutional Ethics Committee approved the blood and tissue collection and written informed consent was obtained. We analysed blood samples from women with singleton pregnancies recruited in the Low- and High-Risk Clinics and Labour and Delivery Unit. All women were followed prospectively from enrolment until delivery. Human placental tissues were collected from pregnancies complicated by preeclampsia and uncomplicated pregnancies delivered by elective Caesarean. Samples of placental tissue were processed for RNA extraction and maternal plasma from the same patients (n=14 PE and n=14 control) were used for analysis. From another set of patients placenta (n=5 PE and n=5 control) was collected for the immunohistochemical study. Preeclampsia was defined as blood pressure >140/90 mm Hg on at least 2 consecutive measurements and maternal proteinuria of at least 300 mg/24 h. First trimester placental tissues (6-9 weeks gestational age) were retrieved from normal pregnancies that had undergone elective termination. Villus explants were prepared as described previously.^29 Briefly, human placental villus explants were incubated with or without PAG for 24 hours, and conditioned media collected and assayed for sFlt-1 or sEng and PlGF.
as §1
Angiogenic factors produced by placenta are important in regulating placental vascular development.^33 Imbalance of pro- and anti-angiogenic factors generated by the placenta^29 may account for the widespread maternal endothelial dysfunction in preeclampsia.^34 To investigate whether reduced levels of CSE has any effect on the production of placental angiogenic factor production, sFlt-1, sEng, and PlGF levels were measured in conditioned medium from first trimester human placental explants in the presence of increasing concentration of CSE inhibitor PAG over 24 hours.

[5] = test system: HUVEC; settings: preeclamptic plasma, 100 mM NaHS
Experimental: The spontaneous formation of capillary-like structures by HUVECs on growth factor-reduced Matrigel (Becton Dickinson, Bedford, Mass.), was used to assess angiogenic potential. HUVECs were treated with plasma samples collected from pregnancies complicated by preeclampsia and uncomplicated pregnancies with or without H2S donor (NaHS) and incubated at 37° C. for 24 hours. Ninety-six well plates were coated with Matrigel (10 mg/ml) according to the manufacturer's instructions. HUVECs (1×10^4 cells/well) were then seeded on Matrigel-coated plates.

[6] = GYY4137 0.25 mg/kg with 50 mg/kg PAG
[7] = GYY4137 in mice treated with 50 mg/kg PAG

C#CCC(N)C(=O)O (racemic) [PAG, DL-propargylglycine]
blood pressure [1]: elevated
cell invasion compared with vehicle control [2]: significant reduction
fetal vasculature of the placenta (isolectin B4) ([3]; 50 mg/kg PAG): irregular branching
plasma levels of sEng ([3]; 50 mg/kg PAG alone): induced
plasma levels of sFlt-1 ([3]; 50 mg/kg PAG alone): induced
maternal blood space in the labyrinth zone, versus vehicle controls ([3]; 50 mg/kg PAG, blinded histology of placental sections): appeared larger
circulating H2S levels ([3]; 25 or 50 mg/kg PAG i.p. daily E8.5 to E16.5, pooled plasma): dose-dependent decrease
proteinuria (renal pathological changes) ([3]; PAG treated animals): not noted
circulating liver enzyme aspartate transaminase (AST), liver damage ([3]; PAG-treated animals): increased level
mean blood pressure ([3]; high dose PAG (50 mg/kg), vehicle control 64.74±2.04): 74.40±4.61
reduction of plasma H2S levels ([3]; higher dose PAG (50 mg/kg), after 8 days of treatment, pooled plasma): approximately 50%
fetal weight ([3]; higher dose of PAG): significantly decreased
PlGF production [4]: significantly reduced
sEng levels in conditioned medium [4]: remained unchanged
sFlt-1 levels in conditioned medium [4]: remained unchanged

C1COCCN1.COc1ccc(P(=S)(S)N2CCOCC2)cc1 (centres unmarked) [GYY4137, morpholin-4-ium 4 methoxy phenyl(morpholino)phosphinodithiolate]
all the changes of PAG-treated pregnant mice (blood pressure, AST) [3, 6]: abrogated
fetal growth compromised by the CSE inhibitor [3, 6]: restored
plasma levels of sEng induced by CSE inhibition [3, 7]: inhibited
plasma levels of sFlt-1 induced by CSE inhibition [3, 7]: inhibited
blood pressure compromised by PAG-treatment ([3]; GYY4137 with PAG): rescued
liver function compromised by PAG-treatment ([3]; GYY4137 with PAG): rescued
placental vascular defect due to inhibition of CSE activity ([3]; GYY4137 with PAG 50 mg/kg): restored

[Na+].[SH-] [NaHS, sodium hydrogen sulfide]
ability of HUVECs to form tube-like structure [5]: partially restored
